Laboratory results: PMC8548588, “Cesium tolerance is enhanced by a chemical which binds to BETA-GLUCOSIDASE 23 in Arabidopsis thaliana” (Scientific Reports, 2021)

Biological target: T1, AtβGLU23 (BETA-GLUCOSIDASE 23, PYK10) (Arabidopsis thaliana, UniProt Q9SR37)
T1 construct: gene BGLU23; native protein from total protein extract of 11-day-old seedlings
T1 sequence (Q9SR37 25-524): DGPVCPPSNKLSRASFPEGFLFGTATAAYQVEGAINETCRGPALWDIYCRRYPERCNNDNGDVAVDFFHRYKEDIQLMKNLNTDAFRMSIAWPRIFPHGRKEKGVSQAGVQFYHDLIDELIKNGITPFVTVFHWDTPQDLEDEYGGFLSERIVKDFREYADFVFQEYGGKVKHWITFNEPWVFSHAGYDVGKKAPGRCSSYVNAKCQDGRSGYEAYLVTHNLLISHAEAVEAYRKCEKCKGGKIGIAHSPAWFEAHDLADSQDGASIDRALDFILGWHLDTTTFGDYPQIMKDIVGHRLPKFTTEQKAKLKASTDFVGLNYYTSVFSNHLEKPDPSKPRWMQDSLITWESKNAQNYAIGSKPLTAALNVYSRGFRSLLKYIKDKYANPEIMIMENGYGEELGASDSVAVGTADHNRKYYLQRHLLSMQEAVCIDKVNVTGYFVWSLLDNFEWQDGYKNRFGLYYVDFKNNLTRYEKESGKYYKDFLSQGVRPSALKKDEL
Experiment: pull-down from plant extract with photo-cross-linked compound beads, SDS-PAGE, LC-MS/MS
Type: binding
Conditions: compound immobilised on photoaffinity-linker-coated agarose beads; 10 mM CsCl, pH 7.6, 4 °C, 18-24 h; control beads without compound

pull-down from plant extract with photo-cross-linked compound beads, SDS-PAGE, L: CsToAcE1, binds to AtβGLU23
SMILES: Cc1cc(C(=O)Cn2cc(C(F)(F)F)ccc2=O)c(C)n1C(C)C [CsToAcE1, 1-[2-[2,5-Dimethyl-1-(propan-2-yl)-1H-pyrrol-3-yl]-2-oxoethyl]-5-(trifluoromethyl)-1,2-dihydropyridin-2-one]
